Laboratory results taken from ChEMBL document CHEMBL3286207, “Development of a new class of proteasome inhibitors with an epoxyketone warhead: Rational hybridization of non-peptidic belactosin derivatives and peptide epoxyketones” (Bioorg Med Chem, 2014).

Tests used:
HCT-116 = assay: Cytotoxicity against human HCT116 cells assessed as growth inhibition after 72 hrs by CCK-8 assay; format: functional, cell-based; settings: HCT-116, 72 h
26S proteasome = assay: Inhibition of chymotrypsin-like of human 20S proteasome using chromophoric Suc-LLVY-AMC as substrate after 60 mins by fluorescence assay; format: protein-complex assay

## CC[C@H](C)[C@@H]1C(=O)O[C@H]1C(=O)NCCC(COCc1ccccc1)COCc1ccccc1
HCT-116
  IC50: > 10000 nM

## CC(=O)N[C@@H](CC(=O)NCCC(COCc1ccccc1)COCc1ccccc1)C(=O)N[C@@H](CC(C)C)C(=O)[C@@]1(C)CO1
26S proteasome
  IC50: 2300 nM
HCT-116
  IC50: 1900 nM

## CC(=O)N[C@@H](CC(=O)NCCCCOCc1ccccc1)C(=O)N[C@@H](CC(C)C)C(=O)[C@@]1(C)CO1
26S proteasome
  IC50: 5700 nM
HCT-116
  IC50: 2900 nM
